{
  "source": "patent US4021421A",
  "about": "“Benzodiazepine derivatives” (Richter Gedeon Vegyeszeti Gyar Rt., priority 1974, dated 1977)",
  "key": {"[1]": {"system": "hexobarbital oxidase", "assay": "in vivo hexobarbital oxidase activity: hexobarbital sleeping time in rats (enzyme induction)", "parameters": "species or system male Wistar rats", "conditions": "40 mg./kg. oral; for Difference % (period of sleep vs. control): 24 hours, vs. control group, difference greater than 25% regarded as biologically significant; for Period of sleep, min. ± standard error: hexobarbital sodium 40 mg./kg. i.v. 24 hours later, control 28.50 ± 3.12 min.", "experimental": "The enzyme-inducing effects of the new compounds were examined under in vivo conditions by determining the hexobarbital oxidase activity. The active agents of the formula (I) were administered to male Wistar rats weighing 50 to 60 g. in oral dosages of 40 mg./kg. The effect appears 24 hours after the administration of the enzyme-inducing substance. At that time the inactivation rate of hexobarbital was determined by administering intravenously 40 mg./kg. of hexobarbital sodium into the animals and measuring the time elapsed between the administration and the reappearance of the righting reflex. The period of sleep observed for the animals treated with the new compounds was compared to that observed in the control group (the animals belonging to the control group were treated with carrier substance only).\n24 Hours after the administration of the enzyme-inducing compounds the in vivo inactivation of hexobarbital accelerates, which is evidenced by the shortening of the period of sleep. The results were expressed as percentage differences with respect to the controls. On the basis of the preliminary experiments a difference greater than 25% was regarded to be biologically significant."}, "[2]": {"system": "hexobarbital", "assay": "biological half life-time of hexobarbital (UV spectrophotometry of plasma)", "conditions": "half-life of hexobarbital in treated rats, control 38 min."}},
  "data": [
    {"smiles": "CN1C(=O)CN(N)C(c2ccccc2)c2cc(Cl)ccc21", "note": "(stereo not drawn) [Example 3, 1-Methyl-4-amino-5-phenyl-7-chloro-1,3,4,5-tetrahydro-2H-1,4-benzodiazepine-2-one]", "values": [
      {"measurement": "Difference % (period of sleep vs. control)", "setting": "[1]", "result": -35, "unit": "%"},
      {"measurement": "Period of sleep, min. ± standard error", "setting": "[1]", "result": "18.57 ± 2.06", "unit": "min"}
    ]},
    {"smiles": "O=NN1CC(=O)Nc2ccc([N+](=O)[O-])cc2C1c1ccccc1", "note": "(stereo not drawn) [Example 2, 4-Nitroso-5-phenyl-7-nitro-1,3,4,5-tetrahydro-2H-1,4-benzodiazepine-2-one]", "values": [
      {"measurement": "Difference % (period of sleep vs. control)", "setting": "[1]", "result": -51, "unit": "%"},
      {"measurement": "Period of sleep, min. ± standard error", "setting": "[1]", "result": "13.97 ± 2.10", "unit": "min"}
    ]},
    {"smiles": "CN1C(=O)CN(N=Cc2ccccc2)C(c2ccccc2)c2cc(Cl)ccc21", "note": "(stereo not drawn) [Example 5, 1-Methyl-4-benzalamino-5-phenyl-7-chloro-1,3,4,5-tetrahydro-2H-1,4-benzodiazepine-2-one]", "values": [
      {"measurement": "T1/2 (biological half life-time of hexobarbital)", "setting": "[2]", "result": 26, "unit": "min."},
      {"measurement": "Difference % (period of sleep vs. control)", "setting": "[1]", "result": -58, "unit": "%"},
      {"measurement": "Period of sleep, min. ± standard error", "setting": "[1]", "result": "11.96 ± 1.38", "unit": "min"}
    ]},
    {"smiles": "CN1C(=O)CN(N=O)C(c2ccccc2)c2cc(Cl)ccc21", "note": "(stereo not drawn) [Example 1, 1-Methyl-4-nitroso-5-phenyl-7-chloro-1,3,4,5-tetrahydro-2H-1,4-benzodiazepine-2-one]", "values": [
      {"measurement": "Difference % (period of sleep vs. control)", "setting": "[1]", "result": -42, "unit": "%"},
      {"measurement": "Period of sleep, min. ± standard error", "setting": "[1]", "result": "16.53 ± 1.93", "unit": "min"}
    ]},
    {"smiles": "CN1C(=O)CN(N=Cc2ccc(O)cc2)C(c2ccccc2)c2cc(Cl)ccc21", "note": "(stereo not drawn) [Example 10, 1-Methyl-4-(p-hydroxy-benzalamino)-5-phenyl-7-chloro-1,3,4,5-tetrahydro-2H-1,4-benzodiazepine-2-one]", "values": [
      {"measurement": "Difference % (period of sleep vs. control)", "setting": "[1]", "result": -41, "unit": "%"},
      {"measurement": "Period of sleep, min. ± standard error", "setting": "[1]", "result": "16.82 ± 1.84", "unit": "min"}
    ]},
    {"smiles": "CC(=O)NN1CC(=O)N(C)c2ccc(Cl)cc2C1c1ccccc1", "note": "(stereo not drawn) [Example 13, 1-Methyl-4-acetylamino-5-phenyl-7-chloro-1,3,4,5-tetrahydro-2H-1,4-benzodiazepine-2-one]", "values": [
      {"measurement": "Difference % (period of sleep vs. control)", "setting": "[1]", "result": -29, "unit": "%"},
      {"measurement": "Period of sleep, min. ± standard error", "setting": "[1]", "result": "20.24 ± 2.17", "unit": "min"}
    ]},
    {"smiles": "CN1C(=O)CN(NC(=O)CCl)C(c2ccccc2)c2cc(Cl)ccc21", "note": "(stereo not drawn) [Example 12, 1-Methyl-4-chloroacetamino-5-phenyl-7-chloro-1,3,4,5-tetrahydro-2H-1,4-benzodiazepine-2-one]", "values": [
      {"measurement": "Difference % (period of sleep vs. control)", "setting": "[1]", "result": -33, "unit": "%"},
      {"measurement": "Period of sleep, min. ± standard error", "setting": "[1]", "result": "19.10 ± 2.28", "unit": "min"}
    ]}
  ]
}
